# Test results: patent publication US20110230481A2, “DERIVATIVES OF TETRABROMOBENZIMIDAZOLE, A PROCESS FOR THE PREPARATION THEREOF, A PHARMACEUTICAL COMPOSITION COMPRISING THE SAME, A METHOD OF USING THE SAME, A METHOD FOR MODULATING OR REGULATING SERINE/THREONINE KINASES, AND SERINE/THREONINE KINASES MODULATING AGENT” (SELVITA S.A., priority 2009, published 2011)
# How the values were obtained:
# Assay in all cases: KINOMEscan Max
# Type in all cases: binding
# CDC2L5 = molecular target: T1, CDC2L5 (Homo sapiens, UniProt Q14004); conditions: 1 μM
# T1 construct: DNA tag (qPCR read-out); purchased Ambit Kinomescan
# T1 sequence (Q14004 whole entry): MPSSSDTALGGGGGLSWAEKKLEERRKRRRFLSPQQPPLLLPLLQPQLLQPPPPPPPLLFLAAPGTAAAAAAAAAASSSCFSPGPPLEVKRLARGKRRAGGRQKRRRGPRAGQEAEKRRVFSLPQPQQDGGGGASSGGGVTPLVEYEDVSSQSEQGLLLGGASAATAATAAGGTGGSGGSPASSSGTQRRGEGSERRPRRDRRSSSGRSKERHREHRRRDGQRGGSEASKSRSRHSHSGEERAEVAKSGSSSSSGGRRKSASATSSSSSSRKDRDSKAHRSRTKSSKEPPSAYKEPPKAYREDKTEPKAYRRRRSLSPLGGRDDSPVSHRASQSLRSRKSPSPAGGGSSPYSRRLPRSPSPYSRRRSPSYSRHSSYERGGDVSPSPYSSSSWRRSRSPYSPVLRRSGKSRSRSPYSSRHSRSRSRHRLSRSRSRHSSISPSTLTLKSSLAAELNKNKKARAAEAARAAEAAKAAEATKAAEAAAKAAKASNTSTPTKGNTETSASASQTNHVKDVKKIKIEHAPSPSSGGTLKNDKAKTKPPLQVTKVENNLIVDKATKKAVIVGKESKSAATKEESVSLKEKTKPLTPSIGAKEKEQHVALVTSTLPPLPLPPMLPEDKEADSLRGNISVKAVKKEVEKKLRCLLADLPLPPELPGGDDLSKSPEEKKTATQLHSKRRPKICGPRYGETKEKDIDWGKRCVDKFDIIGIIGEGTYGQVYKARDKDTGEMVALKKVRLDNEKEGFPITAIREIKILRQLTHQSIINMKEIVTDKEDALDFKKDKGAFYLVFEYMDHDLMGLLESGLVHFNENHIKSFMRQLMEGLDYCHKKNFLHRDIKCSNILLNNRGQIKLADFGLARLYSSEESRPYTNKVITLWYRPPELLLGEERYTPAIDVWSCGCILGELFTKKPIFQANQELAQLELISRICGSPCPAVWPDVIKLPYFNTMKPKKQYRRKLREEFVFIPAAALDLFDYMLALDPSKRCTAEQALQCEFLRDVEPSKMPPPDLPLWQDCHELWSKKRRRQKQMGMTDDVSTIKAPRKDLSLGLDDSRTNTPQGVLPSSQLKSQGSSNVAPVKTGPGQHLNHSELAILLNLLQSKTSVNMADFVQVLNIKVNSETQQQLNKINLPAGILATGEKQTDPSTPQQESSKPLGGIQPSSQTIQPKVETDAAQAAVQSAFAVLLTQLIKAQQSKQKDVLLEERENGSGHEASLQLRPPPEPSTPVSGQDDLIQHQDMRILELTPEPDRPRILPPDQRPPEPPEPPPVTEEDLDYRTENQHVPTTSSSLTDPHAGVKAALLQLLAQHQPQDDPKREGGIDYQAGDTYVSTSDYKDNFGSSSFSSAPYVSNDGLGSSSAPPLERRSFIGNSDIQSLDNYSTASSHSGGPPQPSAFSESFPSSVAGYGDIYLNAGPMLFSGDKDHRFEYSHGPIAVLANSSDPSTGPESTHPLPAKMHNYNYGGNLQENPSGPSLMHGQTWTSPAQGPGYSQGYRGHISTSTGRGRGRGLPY
# In short: (§1)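 Binding was measured by competition: compounds were tested for their ability to displace DNA-tagged kinases from an immobilized ligand directed at the active site, with quantitative PCR of the tag as read-out.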
# SRMS = molecular target: T2, SRMS (Homo sapiens, UniProt Q9H3Y6)
# T2 construct: DNA tag (qPCR read-out)
# In short: as §1
# CDK3 = CDK3 (Homo sapiens, UniProt Q00526); conditions: 1 μM
# In short: as §1
# CLK3 = molecular target: T3, CLK3 (Homo sapiens, UniProt P49761)
# T3 construct: purchased Ambit (KINOMEscan Max service)
# In short: as §1
# PKN2 = molecular target: T4, PKN2 (Homo sapiens, UniProt Q16513)
# T4 construct: purchased Ambit (KINOMEscan Max service)
# In short: as §1
# RIPK4 = molecular target: T5, RIPK4 (Homo sapiens, UniProt P57078)
# T5 construct: DNA tag (qPCR read-out)
# In short: as §1
# NEK1 = NEK1 (Homo sapiens, UniProt Q96PY6)
# NEK1, sequence (Q96PY6 whole entry): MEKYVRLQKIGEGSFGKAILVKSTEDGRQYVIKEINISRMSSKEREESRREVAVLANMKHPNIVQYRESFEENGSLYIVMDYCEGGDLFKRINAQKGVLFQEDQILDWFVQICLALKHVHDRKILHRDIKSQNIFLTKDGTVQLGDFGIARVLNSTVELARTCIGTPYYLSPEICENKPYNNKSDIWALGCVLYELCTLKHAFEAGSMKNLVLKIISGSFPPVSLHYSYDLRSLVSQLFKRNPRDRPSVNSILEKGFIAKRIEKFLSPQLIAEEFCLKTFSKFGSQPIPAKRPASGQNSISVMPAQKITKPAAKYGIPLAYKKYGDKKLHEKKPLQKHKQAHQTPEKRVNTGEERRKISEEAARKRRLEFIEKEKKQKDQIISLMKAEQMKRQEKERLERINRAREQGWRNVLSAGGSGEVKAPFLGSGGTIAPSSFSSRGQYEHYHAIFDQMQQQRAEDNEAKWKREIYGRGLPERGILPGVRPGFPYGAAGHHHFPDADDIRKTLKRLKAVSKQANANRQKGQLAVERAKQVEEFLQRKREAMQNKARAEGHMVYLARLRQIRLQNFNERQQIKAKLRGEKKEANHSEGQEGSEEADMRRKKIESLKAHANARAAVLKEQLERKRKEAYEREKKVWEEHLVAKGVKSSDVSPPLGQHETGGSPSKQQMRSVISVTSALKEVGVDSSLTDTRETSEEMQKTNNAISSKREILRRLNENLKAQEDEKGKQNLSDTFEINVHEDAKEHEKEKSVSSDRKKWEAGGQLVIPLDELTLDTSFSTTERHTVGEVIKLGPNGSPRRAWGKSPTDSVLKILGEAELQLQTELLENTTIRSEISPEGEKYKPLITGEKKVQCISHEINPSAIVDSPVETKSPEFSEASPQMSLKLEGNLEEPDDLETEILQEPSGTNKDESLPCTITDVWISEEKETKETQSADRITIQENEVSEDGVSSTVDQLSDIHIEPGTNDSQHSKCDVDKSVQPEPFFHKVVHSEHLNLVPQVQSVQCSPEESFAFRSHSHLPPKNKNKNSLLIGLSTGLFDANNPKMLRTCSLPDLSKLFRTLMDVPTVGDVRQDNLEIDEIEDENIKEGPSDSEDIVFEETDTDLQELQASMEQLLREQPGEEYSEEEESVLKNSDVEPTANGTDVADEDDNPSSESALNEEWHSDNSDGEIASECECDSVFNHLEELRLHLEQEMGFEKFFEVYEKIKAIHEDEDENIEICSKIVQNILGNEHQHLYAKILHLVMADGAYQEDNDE
# In short: as §1
# IRAK1 = molecular target: T6, IRAK1 (Homo sapiens, UniProt P51617)
# T6 construct: DNA tag (qPCR read-out)
# In short: as §1
# CDKL5 = molecular target: T7, CDKL5 (Homo sapiens, UniProt O76039)
# T7 construct: DNA tag (qPCR read-out)
# In short: as §1
# YSK1 = molecular target: T8, YSK1 (Homo sapiens, UniProt O00506)
# T8 construct: purchased Ambit Kinomescan (contract screening service)
# T8 sequence (O00506 whole entry): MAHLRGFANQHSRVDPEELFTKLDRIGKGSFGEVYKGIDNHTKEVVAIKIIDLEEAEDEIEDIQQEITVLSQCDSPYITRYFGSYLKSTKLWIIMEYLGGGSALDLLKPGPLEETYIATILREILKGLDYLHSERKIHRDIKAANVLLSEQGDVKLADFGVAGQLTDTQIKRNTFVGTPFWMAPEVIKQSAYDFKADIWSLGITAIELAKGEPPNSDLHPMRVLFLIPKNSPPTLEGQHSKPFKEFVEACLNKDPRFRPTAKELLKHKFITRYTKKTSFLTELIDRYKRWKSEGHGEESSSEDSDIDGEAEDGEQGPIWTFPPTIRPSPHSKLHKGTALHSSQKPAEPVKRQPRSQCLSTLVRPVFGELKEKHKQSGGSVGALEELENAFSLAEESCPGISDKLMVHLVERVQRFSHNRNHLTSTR
# In short: as §1
# [1] = molecular target: ABL1(F317L)-phosphorylated (Homo sapiens, UniProt P00519, F317L)
# In short: as §1
# LIMK1 = LIMK1 (Homo sapiens, UniProt P53667)
# In short: as §1
# PAK4 = molecular target: T9, PAK4 (Homo sapiens, UniProt O96013)
# T9 construct: purchased Ambit (KINOMEscan Max service)
# In short: as §1
# MET = molecular target: T10, MET (Homo sapiens, UniProt P08581); conditions: 1 μM
# T10 construct: purchased Ambit Kinomescan (contract screening)
# T10 sequence (P08581 25-1390): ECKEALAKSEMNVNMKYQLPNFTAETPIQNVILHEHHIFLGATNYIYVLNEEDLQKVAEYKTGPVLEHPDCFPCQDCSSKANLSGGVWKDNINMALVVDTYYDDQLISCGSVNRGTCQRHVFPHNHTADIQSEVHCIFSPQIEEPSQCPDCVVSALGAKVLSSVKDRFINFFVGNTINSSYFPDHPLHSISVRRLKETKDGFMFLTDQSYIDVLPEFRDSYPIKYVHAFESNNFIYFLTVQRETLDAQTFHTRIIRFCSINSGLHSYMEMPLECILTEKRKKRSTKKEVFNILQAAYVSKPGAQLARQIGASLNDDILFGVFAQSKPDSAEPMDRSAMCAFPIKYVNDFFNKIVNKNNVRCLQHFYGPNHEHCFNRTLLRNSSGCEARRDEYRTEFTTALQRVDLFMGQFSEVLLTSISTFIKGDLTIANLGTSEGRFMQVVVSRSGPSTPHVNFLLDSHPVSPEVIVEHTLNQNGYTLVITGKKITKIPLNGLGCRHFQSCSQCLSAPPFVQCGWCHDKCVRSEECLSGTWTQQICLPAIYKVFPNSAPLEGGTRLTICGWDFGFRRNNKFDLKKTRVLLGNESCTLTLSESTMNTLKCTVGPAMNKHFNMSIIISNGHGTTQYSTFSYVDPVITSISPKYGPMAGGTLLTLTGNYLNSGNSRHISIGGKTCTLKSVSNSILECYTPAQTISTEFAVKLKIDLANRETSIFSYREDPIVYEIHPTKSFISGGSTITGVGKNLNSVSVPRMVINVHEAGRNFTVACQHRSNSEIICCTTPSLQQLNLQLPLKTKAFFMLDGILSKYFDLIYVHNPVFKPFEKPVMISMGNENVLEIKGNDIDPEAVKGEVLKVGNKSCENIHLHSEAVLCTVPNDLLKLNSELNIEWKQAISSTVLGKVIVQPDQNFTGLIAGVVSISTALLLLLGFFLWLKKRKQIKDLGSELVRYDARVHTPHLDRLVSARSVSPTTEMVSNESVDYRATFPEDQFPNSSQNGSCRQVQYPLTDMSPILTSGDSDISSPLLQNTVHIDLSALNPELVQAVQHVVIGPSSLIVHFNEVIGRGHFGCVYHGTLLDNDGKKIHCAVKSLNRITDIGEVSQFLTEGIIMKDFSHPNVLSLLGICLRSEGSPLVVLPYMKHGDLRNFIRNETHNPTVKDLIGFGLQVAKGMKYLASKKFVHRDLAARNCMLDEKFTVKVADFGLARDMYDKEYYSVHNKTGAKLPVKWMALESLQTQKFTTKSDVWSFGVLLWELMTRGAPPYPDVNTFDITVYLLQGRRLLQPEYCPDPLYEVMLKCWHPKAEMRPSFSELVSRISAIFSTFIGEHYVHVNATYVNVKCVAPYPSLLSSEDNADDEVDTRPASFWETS
# In short: as §1
# FLT3(D835H) = molecular target: T11, FLT3(D835H) (Homo sapiens, UniProt P36888, D835H)
# T11 construct: purchased Ambit (KINOMEscan Max service)
# In short: as §1
# TTK = molecular target: T12, TTK (Homo sapiens, UniProt P33981)
# T12 construct: purchased Ambit Kinomescan (contract screening service)
# In short: as §1
# PRKX = molecular target: T13, PRKX (Homo sapiens, UniProt P51817)
# T13 construct: DNA tag (qPCR read-out)
# In short: as §1
# DCAMKL2 = molecular target: T14, DCAMKL2 (Homo sapiens, UniProt Q8N568)
# T14 construct: purchased Ambit (KINOMEscan Max panel service)
# In short: as §1
# PRKR = PRKR (Homo sapiens, UniProt P19525); conditions: 1 μM
# In short: as §1
# MARK1 = molecular target: T15, MARK1 (Homo sapiens, UniProt Q9P0L2)
# T15 construct: purchased Ambit Kinomescan (contract panel)
# In short: as §1
# WEE1 = WEE1 (Homo sapiens, UniProt P30291)
# In short: as §1
# SLK = SLK (Homo sapiens, UniProt Q9H2G2)
# In short: as §1
# BLK = BLK (Homo sapiens, UniProt P51451)
# In short: as §1
# LRRK2(G2019S) = molecular target: T16, LRRK2(G2019S) (Homo sapiens, UniProt Q5S007, G2019S)
# T16 construct: purchased Ambit (KINOMEscan Max service)
# In short: as §1
# p38-alpha = p38-alpha (Homo sapiens, UniProt Q16539); conditions: 1 μM
# In short: as §1
# ANKK1 = molecular target: T17, ANKK1 (Homo sapiens, UniProt Q8NFD2)
# T17 construct: DNA tag (qPCR label); purchased Ambit Kinomescan (contract screening)
# In short: as §1
# ULK3 = molecular target: T18, ULK3 (Homo sapiens, UniProt Q6PHR2); conditions: 1 μM
# T18 construct: purchased Ambit Kinomescan (contract screening service)
# T18 sequence (Q6PHR2 whole entry): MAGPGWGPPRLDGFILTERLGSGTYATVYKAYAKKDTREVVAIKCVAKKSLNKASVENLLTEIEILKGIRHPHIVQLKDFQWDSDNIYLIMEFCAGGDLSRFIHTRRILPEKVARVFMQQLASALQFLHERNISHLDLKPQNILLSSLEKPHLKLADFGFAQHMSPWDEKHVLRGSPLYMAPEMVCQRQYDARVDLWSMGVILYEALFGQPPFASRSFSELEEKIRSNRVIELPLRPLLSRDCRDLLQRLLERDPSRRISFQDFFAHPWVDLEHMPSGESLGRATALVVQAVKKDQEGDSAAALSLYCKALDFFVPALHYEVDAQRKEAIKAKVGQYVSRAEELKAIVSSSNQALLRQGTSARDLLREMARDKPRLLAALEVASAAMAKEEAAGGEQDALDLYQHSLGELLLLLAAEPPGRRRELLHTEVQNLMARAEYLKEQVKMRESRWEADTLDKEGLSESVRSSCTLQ
# In short: as §1
# PIK3CA = molecular target: T19, PIK3CA (Homo sapiens, UniProt P42336)
# T19 construct: DNA tag (qPCR read-out)
# In short: as §1
# ERBB3 = molecular target: T20, ERBB3 (Homo sapiens, UniProt P21860)
# T20 construct: purchased Ambit (KINOMEscan Max service)
# In short: as §1
# TNIK = molecular target: T21, TNIK (Homo sapiens, UniProt Q9UKE5)
# T21 construct: purchased Ambit Kinomescan (contract screening service)
# In short: as §1
# NEK9 = NEK9 (Homo sapiens, UniProt Q8TD19)
# In short: as §1
# NEK6 = NEK6 (Homo sapiens, UniProt Q9HC98)
# In short: as §1
# VEGFR2 = molecular target: T22, VEGFR2 (Homo sapiens, UniProt P35968)
# T22 construct: purchased Ambit Kinomescan (contract screening)
# In short: as §1
# ERBB4 = molecular target: T23, ERBB4 (Homo sapiens, UniProt Q15303)
# T23 construct: purchased Ambit Kinomescan (contract panel, KINOMEscan Max)
# In short: as §1
smiles,measurement,setting,value
"NCCCNc1nc2c(Br)c(Br)c(Br)c(Br)c2[nH]1 [Compound 11, N-(3-aminopropyl)-4,5,6,7-tetrabromo-1H-benzo[d]imidazol-2-amine]",% binding,CDC2L5,24%
same,remaining binding at 1 µM,SRMS,100%
same,% binding,CDK3,74%
same,remaining binding at 1 µM,CLK3,70%
same,remaining binding at 1 µM,PKN2,80%
same,remaining binding at 1 µM,RIPK4,100%
same,remaining binding at 1 µM,NEK1,100%
same,remaining binding at 1 µM,IRAK1,52%
same,remaining binding at 1 µM,CDKL5,25%
same,remaining binding at 1 µM,YSK1,100%
same,remaining binding at 1 µM,[1],100%
same,remaining binding at 1 µM,LIMK1,96%
same,remaining binding at 1 µM,PAK4,85%
same,% binding,MET,97%
same,remaining binding at 1 µM,FLT3(D835H),58%
same,remaining binding at 1 µM,TTK,100%
same,remaining binding at 1 µM,PRKX,100%
same,remaining binding at 1 µM,DCAMKL2,100%
same,% binding,PRKR,91%
same,remaining binding at 1 µM,MARK1,100%
same,remaining binding at 1 µM,WEE1,91%
same,remaining binding at 1 µM,SLK,92%
same,remaining binding at 1 µM,BLK,96%
same,remaining binding at 1 µM,LRRK2(G2019S),70%
same,% binding,p38-alpha,100%
same,remaining binding at 1 µM,ANKK1,100%
same,% binding,ULK3,100%
same,remaining binding at 1 µM,PIK3CA,100%
same,remaining binding at 1 µM,ERBB3,68%
same,remaining binding at 1 µM,TNIK,100%
same,remaining binding at 1 µM,NEK9,95%
same,remaining binding at 1 µM,NEK6,100%
same,remaining binding at 1 µM,VEGFR2,96%
same,remaining binding at 1 µM,ERBB4,100%
